Measurements taken from US12150940B2, “WASp-protecting small molecules, compositions, methods and uses thereof in the treatment of innate and acquired immune-related disorders or conditions” (BAR ILAN UNIVERSITY, priority 2016, dated 2024).

Columns and labels:
[1] = test system: YFP-WASp R86C or Y107C; test: WASp expression in WASp knockout Jurkat lines expressing only YFP-WASp R86C or Y107C (western blot); format: cell-based, human; settings: WAS−/−/WASp R86C or Y107C, vs control-treated cells
Procedure: The cells were then co-stimulated with anti-CD3 and anti-CD28 and analyzed by western blot as described in FIG. 14B. […] Relative protein expression was determined by densitometric analysis and is presented below the corresponding lanes.
CRISPR/CAS9 knockdown of endogenous WASp in T-cells was conducted according to published protocol (Ran F A et al, 2013). The vector pSpCas9 (BB)-2A-GFP (PX458) was purchased from Addgene, plasmid #48138. RNA guides were designed to target an intron/exon junction in the WAS gene, in order to eliminate gene silencing of exogenous YFP-WASp. RNA guide sequences aimed for WASp locus were constructed using the online CRISPR design tool algorithm (Zhang Lab) and NCBI gene. The guides which received the highest score were selected to be subcloned into the pSpCas9 (BB)-2A-GFP (PX458) vector.
The sequence present in WASp exons is bold. The sequence that is complementary to WASp intron (chromosome X, GRCh38.p7 nucleotides 1883-1890) is underlined. Knockout of endogenous WASp was conducted in Jurkat cells alone or in Jurkat cells stably expressing YFP-WASp containing the following mutations, R86C (as denoted by SEQ ID NO. 13 and encoded by SEQ ID NO. 14) or Y107C (as denoted by SEQ ID NO. 15 and encoded by SEQ ID NO. 16). […]
Cells exclusively expressing the YFP-WASp mutants were incubated with SMC #34 or solvent, stimulated and analyzed by western blot.

[2] = test system: WAS−/−/WASp R86C Jurkat T-cells; test: Lymphocyte migration on ICAM-1/SDF-1α, WAS−/−/WASp R86C cells; format: cell-based, human
Procedure: WASp knockout Jurkat T-cell lines that express only exogenous YFP-WASp R86C (WAS^−/−/WASp R86C) or Y107C (WAS^−/−/WASp Y107C) were pretreated with SMC #34 in comparison to cells treated with the control. Cells that completely lack WASp expression (WAS^−/−) were also treated with the control. Cellular migration was tracked over a 20-min period on ICAM-1/SDF-1α-coated cover glasses, as described in Experimental procedures.
Approximately 1×10^5 lymphocytes were seeded over chambered coverslips (LabTek) pre-coated with 6 μg/ml ICAM-1 and 2 μg/ml SDF-1α. Cells were incubated at 37° C., 5% CO2 and DIC images were acquired with the Zeiss Observer Z1 inverted microscope every 5 s for 20 min under a 20× objective lens using Zen software. The random movement (Displacement and velocity) of the cells was automatically tracked and analyzed using TrackMate plugin of ImageJ software. An individual trace was assigned to each of the analyzed cells.

[3] = test system: WAS−/− Jurkat T-cells; test: Lymphocyte activation (CD69, flow cytometry), WAS−/− cells; format: cell-based, human
Procedure: 1×10^6 WASp knockout Jurkat T-cell line that expresses only exogenous YFP-WASp harboring the common human WAS and XLT mutation, R86C (WAS−/−/WASp R86C) was pretreated with either negative control or SMC #34. Cells that completely lack WASp expression (WAS^−/−) were also treated with the control. The cells were then stimulated with PMA and Ionomycin. After incubation, the cells were stained with PE-Cy5™-conjugated mouse anti-human CD69 and lymphocyte activation was measured by flow cytometry as described in Experimental procedures. Histogram of negative control versus SMC #34 is presented.
PBMCs or Jurkat cells (about 3×10^5 cells) were incubated for 4 h, at 37° C. with 50 ng/ml PMA and 250 ng/ml lonomycin, or 40 ng/ml PMA and 6 μM Ionomycin, respectively, or left untreated. After incubation, the cells were collected and stained with 1 μg/ml anti-active human LFA-1 antibody (purified from KIM127 hybridoma sup, ATCC Cat #: CRL-2838, Sigma) for 30 min in 37° C., followed by staining with Alexa488-Fluor goat anti-mouse IgG1 secondary antibody (Molecular Probes, Cat #: A-21121), 30 min on ice. Cells were then co-stained with PE-Cy5™-conjugated mouse anti-human CD69 (BD Pharmingen, Cat #: 555532) to measure lymphocyte activation.

[4] = target: T1, WAVE2 (Homo sapiens, UniProt Q9Y6W5); test: MST binding, YFP-WAVE2 in HEK 293T cell lysate
T1 construct: expressed in transfected cells; host or cells: HEK 293T, transient transfection; unpurified cell lysate
T1 sequence (Q9Y6W5 whole entry, species assumed): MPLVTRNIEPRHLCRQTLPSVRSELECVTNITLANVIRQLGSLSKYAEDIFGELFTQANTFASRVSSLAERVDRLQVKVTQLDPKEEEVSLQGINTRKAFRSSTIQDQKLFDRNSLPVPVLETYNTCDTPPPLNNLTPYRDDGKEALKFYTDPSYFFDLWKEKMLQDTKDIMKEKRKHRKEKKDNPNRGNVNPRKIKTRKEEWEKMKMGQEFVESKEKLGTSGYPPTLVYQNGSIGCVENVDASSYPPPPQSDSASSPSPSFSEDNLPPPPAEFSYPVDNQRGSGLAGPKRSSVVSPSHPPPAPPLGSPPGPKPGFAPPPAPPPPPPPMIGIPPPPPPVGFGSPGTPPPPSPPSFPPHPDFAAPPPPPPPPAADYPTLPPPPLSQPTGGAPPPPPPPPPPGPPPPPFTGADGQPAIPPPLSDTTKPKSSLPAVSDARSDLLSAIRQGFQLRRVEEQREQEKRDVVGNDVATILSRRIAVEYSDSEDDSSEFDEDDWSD
Procedure: Diluted cell lysates of YFP-WASp/N-WASp/WAVE2-expressing HEK 293T cells were incubated with serially-diluted (100 μM-3 nM) SMCs. The mixed lysates and SMCs were then loaded into standard-treated Monolith™ capillaries and the fluorescence of the samples was measured by the Monolith NT.115 instrument at 60% MST power. Binding curves of WASp with SMC #6 (FIG. 3A), SMC #30 (FIG. 3B), SMC #33 (FIG. 3C), SMC #34 (FIG. 3D) and Y-27632 (FIG. 3E) or of N-WASp (FIG. 3F) or WAVE2 (FIG. 3G) with SMC #34 were generated by the NanoTemper Analysis 2.231 software. Normalized fluorescence (hot fluorescence/initial fluorescence) is plotted as a function of SMC concentration. […]
YFP-tagged WASp was obtained from cell lysates of Human Embryonic Kidney (HEK) 293T, transiently transfected with YFP-WASp/WAVE2/N-WASp by DNA-calcium phosphate co-precipitation as previously described (Reicher et al, 2012). […] After loading into the instrument (Monolith NT.115, NanoTemper), the samples were measured by standard protocols at 60% MST power. […] KD values were determined using the NanoTemper analysis software (NT Analysis 1.5.37 or 2.2.31).
Following this in silico screening, the inventors identified eight SMCs (#6, #23, #24, #25, #30, #32, #33, #34, see Table 1). […] The SMCs that specifically bind the degradation pocket of WASp were further evaluated by the inventors.

CC1CCCC(C)N1C(=O)CSc1nnc(COc2cccc3cccnc23)o1 (centres unmarked) [SMC #34, 1-(2,6-dimethylpiperidin-1-yl)-2-[[5-(quinolin-8-yloxymethyl)-1,3,4-oxadiazol-2-yl]sulfanyl]ethanone]
WASp expression in cells exclusively expressing the YFP-WASp mutants [1]: increased WASp expression | migration ([2]; WAS−/−/WASp R86C cells, vs control): significantly increased | mean cell displacement ([2]; WAS−/−/WASp R86C, 20 min, mean ± SE): 53.65±4.88 | lymphocyte activation (CD69) [3]: restored the activation | binding to WAVE2 [4]: no binding
